Experimental data from the supplement of paper PMC10883282.
± gives the standard deviation of the averaged measurements.

What was measured:
Assay in all cases: relative viability vs DMSO control (72 h) (fraction); higher = more viable cells
A204 = test system: A204
Outline: (§1)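 Relative viability was measured with ATPLite and expressed as percent growth, averaged across up to triplicate wells. Sarcoma cell lines had been seeded in 384-well plates to reach 80–90% confluence, dosed after 24 h, and incubated 72 h at 37 °C, 5% CO2. All data were rescaled on a scale where 1 is full and 0 is none.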

HS729 = test system: HS729
Outline: as §1

KHOS-240S = test system: KHOS-240S
Outline: as §1

RD = test system: RD
Outline: as §1

SK-ES-1 = test system: SK-ES-1
Outline: as §1

SW982 = test system: SW982
Outline: as §1

SK-LMS-1 = test system: SK-LMS-1
Outline: as §1

SW872 = test system: SW872
Outline: as §1

SW1353 = test system: SW1353
Outline: as §1

G401 = test system: G401
Outline: as §1

MES-SA = test system: MES-SA
Outline: as §1

VA-ES-BJ = test system: VA-ES-BJ
Outline: as §1

O=C1CCc2c(Oc3ccc4c(c3)[C@@H]3[C@H](O4)[C@H]3c3nc4cc(C(F)(F)F)ccc4[nH]3)ccnc2N1 [Lifirafenib]
Conditions | relative viability
A204, 0.00017 µM | 1.1 ± 0.021
A204, 0.00051 µM | 1.12 ± 0.015
A204, 0.00152 µM | 1.12 ± 0.025
A204, 0.00457 µM | 1.104 ± 0.0086
A204, 0.01372 µM | 1.1 ± 0.025
A204, 0.04115 µM | 1.11 ± 0.02
A204, 0.1235 µM | 1.1 ± 0.049
A204, 0.3704 µM | 0.781 ± 0.038
A204, 1.111 µM | 0.49 ± 0.06
A204, 3.333 µM | 0.38 ± 0.0058
A204, 10 µM | 0.317 ± 0.022
G401, 0.00017 µM | 1.02 ± 0.012
G401, 0.00051 µM | 1.03 ± 0.037
G401, 0.00152 µM | 1.03 ± 0.056
G401, 0.00457 µM | 1.02 ± 0.047
G401, 0.01372 µM | 1.02 ± 0.015
G401, 0.04115 µM | 1.03 ± 0.0084
G401, 0.1235 µM | 1.035 ± 0.003
G401, 0.3704 µM | 1.01 ± 0.036
G401, 1.111 µM | 0.957 ± 0.065
G401, 3.333 µM | 0.787 ± 0.014
G401, 10 µM | 0.625 ± 0.051
HS729, 0.00017 µM | 0.947 ± 0.036
HS729, 0.00051 µM | 0.921 ± 0.033
HS729, 0.00152 µM | 0.926 ± 0.04
HS729, 0.00457 µM | 0.937 ± 0.043
HS729, 0.01372 µM | 0.886 ± 0.053
HS729, 0.04115 µM | 0.907 ± 0.048
HS729, 0.1235 µM | 0.871 ± 0.023
HS729, 0.3704 µM | 0.852 ± 0.029
HS729, 1.111 µM | 0.8769 ± 0.0065
HS729, 3.333 µM | 0.851 ± 0.018
HS729, 10 µM | 0.817 ± 0.036
KHOS-240S, 0.00017 µM | 1.068 ± 0.01
KHOS-240S, 0.00051 µM | 1.07 ± 0.022
KHOS-240S, 0.00152 µM | 1.06 ± 0.02
KHOS-240S, 0.00457 µM | 1.08 ± 0.034
KHOS-240S, 0.01372 µM | 1.06 ± 0.033
KHOS-240S, 0.04115 µM | 1.06 ± 0.031
KHOS-240S, 0.1235 µM | 1.06 ± 0.033
KHOS-240S, 0.3704 µM | 1.03 ± 0.046
KHOS-240S, 1.111 µM | 0.967 ± 0.037
KHOS-240S, 3.333 µM | 0.792 ± 0.02
KHOS-240S, 10 µM | 0.547 ± 0.048
MES-SA, 0.00017 µM | 0.948 ± 0.0089
MES-SA, 0.00051 µM | 0.952 ± 0.026
MES-SA, 0.00152 µM | 0.954 ± 0.026
MES-SA, 0.00457 µM | 0.955 ± 0.037
MES-SA, 0.01372 µM | 0.961 ± 0.016
MES-SA, 0.04115 µM | 0.974 ± 0.031
MES-SA, 0.1235 µM | 0.985 ± 0.024
MES-SA, 0.3704 µM | 0.992 ± 0.033
MES-SA, 1.111 µM | 0.956 ± 0.012
MES-SA, 3.333 µM | 0.792 ± 0.025
MES-SA, 10 µM | 0.493 ± 0.012
RD, 0.00017 µM | 1.08 ± 0.036
RD, 0.00051 µM | 1.1 ± 0.061
RD, 0.00152 µM | 1.09 ± 0.035
RD, 0.00457 µM | 1.13 ± 0.051
RD, 0.01372 µM | 1.11 ± 0.069
RD, 0.04115 µM | 1.13 ± 0.05
RD, 0.1235 µM | 1.11 ± 0.04
RD, 0.3704 µM | 1.039 ± 0.01
RD, 1.111 µM | 0.947 ± 0.065
RD, 3.333 µM | 0.787 ± 0.026
RD, 10 µM | 0.5251 ± 0.005
SK-ES-1, 0.00017 µM | 1.01 ± 0.058
SK-ES-1, 0.00051 µM | 1.04 ± 0.072
SK-ES-1, 0.00152 µM | 1.068 ± 0.0054
SK-ES-1, 0.00457 µM | 1.05 ± 0.012
SK-ES-1, 0.01372 µM | 1.09 ± 0.037
SK-ES-1, 0.04115 µM | 1.07 ± 0.044
SK-ES-1, 0.1235 µM | 1.06 ± 0.084
SK-ES-1, 0.3704 µM | 1.08 ± 0.037
SK-ES-1, 1.111 µM | 1.04 ± 0.082
SK-ES-1, 3.333 µM | 0.867 ± 0.017
SK-ES-1, 10 µM | 0.572 ± 0.015
SK-LMS-1, 0.00017 µM | 1.04 ± 0.038
SK-LMS-1, 0.00051 µM | 1.06 ± 0.014
SK-LMS-1, 0.00152 µM | 1.09 ± 0.038
SK-LMS-1, 0.00457 µM | 1.08 ± 0.048
SK-LMS-1, 0.01372 µM | 1.1 ± 0.044
SK-LMS-1, 0.04115 µM | 1.11 ± 0.046
SK-LMS-1, 0.1235 µM | 1.14 ± 0.085
SK-LMS-1, 0.3704 µM | 1.1 ± 0.036
SK-LMS-1, 1.111 µM | 0.876 ± 0.024
SK-LMS-1, 3.333 µM | 0.6129 ± 0.0051
SK-LMS-1, 10 µM | 0.438 ± 0.018
SW872, 0.00017 µM | 0.974 ± 0.044
SW872, 0.00051 µM | 0.998 ± 0.016
SW872, 0.00152 µM | 1.01 ± 0.039
SW872, 0.00457 µM | 1.03 ± 0.031
SW872, 0.01372 µM | 1.03 ± 0.014
SW872, 0.04115 µM | 0.98 ± 0.073
SW872, 0.1235 µM | 0.941 ± 0.016
SW872, 0.3704 µM | 0.735 ± 0.017
SW872, 1.111 µM | 0.644 ± 0.022
SW872, 3.333 µM | 0.644 ± 0.0071
SW872, 10 µM | 0.59 ± 0.0069
SW982, 0.00017 µM | 1.04 ± 0.051
SW982, 0.00051 µM | 1.03 ± 0.027
SW982, 0.00152 µM | 1.055 ± 0.0083
SW982, 0.00457 µM | 1.05 ± 0.019
SW982, 0.01372 µM | 1.02 ± 0.058
SW982, 0.04115 µM | 1.02 ± 0.028
SW982, 0.1235 µM | 1.05 ± 0.051
SW982, 0.3704 µM | 1.03 ± 0.036
SW982, 1.111 µM | 0.897 ± 0.096
SW982, 3.333 µM | 0.757 ± 0.092
SW982, 10 µM | 0.556 ± 0.066
SW1353, 0.00017 µM | 0.989 ± 0.036
SW1353, 0.00051 µM | 0.95 ± 0.045
SW1353, 0.00152 µM | 0.989 ± 0.028
SW1353, 0.00457 µM | 1.01 ± 0.047
SW1353, 0.01372 µM | 1.06 ± 0.038
SW1353, 0.04115 µM | 1.06 ± 0.06
SW1353, 0.1235 µM | 1.06 ± 0.045
SW1353, 0.3704 µM | 1.08 ± 0.018
SW1353, 1.111 µM | 1.03 ± 0.024
SW1353, 3.333 µM | 0.861 ± 0.033
SW1353, 10 µM | 0.545 ± 0.016
VA-ES-BJ, 0.00017 µM | 1.037 ± 0.0073
VA-ES-BJ, 0.00051 µM | 1.039 ± 0.0061
VA-ES-BJ, 0.00152 µM | 1.046 ± 0.0068
VA-ES-BJ, 0.00457 µM | 1.03 ± 0.035
VA-ES-BJ, 0.01372 µM | 1.03 ± 0.03
VA-ES-BJ, 0.04115 µM | 1.04 ± 0.043
VA-ES-BJ, 0.1235 µM | 1.09 ± 0.028
VA-ES-BJ, 0.3704 µM | 1.108 ± 0.0046
VA-ES-BJ, 1.111 µM | 1.11 ± 0.022
VA-ES-BJ, 3.333 µM | 1.09 ± 0.041
VA-ES-BJ, 10 µM | 0.798 ± 0.08
